{"source": "patent US20130001095A1", "about": "“METHOD OF PRODUCING COUPLED RADICAL PRODUCTS” (priority 2009, published 2013)", "origin": "cited, not measured here"}
{"compound": "O=C([O-])CCCC(=O)[O-].[Na+].[Na+]", "note": "[Sodium glutarate]", "values": [{"measurement": "solubility in methanol", "setting": "methanol", "result": "not soluble"}, {"measurement": "solubility in water", "setting": "water", "result": "soluble"}]}
